According to patent US8461119B2, “Agents that modulate Eph receptor activity” (The Burnham Institute, priority 2002, dated 2013):
“Also recorded” adds a separate entry of the source. Read-outs that look alike come from different tables or passages of the source.

Columns and labels:
EphA5 = assay: Binding selectivity of phage clones isolated on EphA5
Description: (§1) Alternatively, peptides and phage were co-incubated together.
(§2) In this example additional phage panning experiments were performed to identify peptides that bind to EphA5 and EphA7 (FIG. 18A). EphA5 and EphA7 are two EphA receptors that are closely related to EphA4 but are differentially expressed in the developing and adult nervous system (Ellis, J. et al. 1995 Mechanisms of Development 52:319-341; Mori, T. et al 1995 Brain Res Mol Brain Res 34:154-160; Olivieri, G. & Miescher, G. C. 1999 J Histochem Cytochem 47:855-861; Zhang, J. H. et al 1997 Brain Res Mol Brain Res 47:202-214). Three different peptide sequences that bind each receptor were identified.

EphB4 [1] = assay: Binding specificity of phage clones on Eph receptor-coated plates; settings: phage clones displaying the peptides
Source text: (§3) Phage binding to Eph receptor-coated plates was quantified using an anti-phage antibody conjugated to horseradish peroxidase (M13 phage detection kit, Amersham Pharmacia Biotech., Piscataway, N.J.).

EphB4 [2] = assay: Binding specificity of synthetic peptides; settings: immobilized synthetic peptide
Source text: (§4) Bound Eph receptors were detected with anti-human Fc antibody conjugated to alkaline phosphatase (AP) (Promega, Madison, Wis.). […] Substrates were 2,2′-azino-bis(3-ethylbenzthiazoline-6-sulfonic acid) for horseradish peroxidase and p-nitrophenyl phosphate for AP.

EphA4 [3] = molecular target: T1, EphA4 (Homo sapiens, UniProt P54764); assay: Binding selectivity of phage clones isolated on EphA4; settings: compared to other EphA or EphB4 receptors
T1 construct: immobilized EphA4 receptor extracellular domain fused to a human Fc region
T1 sequence (P54764 20-547 limits assumed, species assumed): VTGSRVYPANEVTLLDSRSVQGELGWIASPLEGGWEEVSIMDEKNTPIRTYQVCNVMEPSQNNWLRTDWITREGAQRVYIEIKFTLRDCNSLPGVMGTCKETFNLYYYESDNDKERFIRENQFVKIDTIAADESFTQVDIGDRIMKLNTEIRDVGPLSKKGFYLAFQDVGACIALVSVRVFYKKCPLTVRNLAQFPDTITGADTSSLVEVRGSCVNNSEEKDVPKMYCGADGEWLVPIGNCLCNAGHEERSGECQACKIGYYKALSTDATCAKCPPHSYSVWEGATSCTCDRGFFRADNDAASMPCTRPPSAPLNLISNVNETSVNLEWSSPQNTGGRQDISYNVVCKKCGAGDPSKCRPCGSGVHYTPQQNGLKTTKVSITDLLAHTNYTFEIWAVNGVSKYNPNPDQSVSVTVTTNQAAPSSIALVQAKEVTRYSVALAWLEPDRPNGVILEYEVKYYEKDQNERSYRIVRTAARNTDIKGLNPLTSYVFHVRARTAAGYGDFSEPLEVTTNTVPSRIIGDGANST
Source text: as §3
In this example phage display was used to identify peptides that bind to an EphA4 receptor. An M13 phage library displaying random 12-mer peptides was panned on the immobilized EphA4 receptor extracellular domain fused to a human Fc region (FIG. 12A). The phage clones remaining bound to EphA4 were eluted with a low pH solution and amplified.

EphA4 [4] = molecular target: T1, EphA4; assay: Binding specificity of synthetic peptides; settings: compared to other EphA and EphB receptors
Source text: as §4

neural crest cells = assay: Neural crest cell migration assay in chick trunk explants; assay type: cell-based; settings: 24 hours, 13 μM KYL peptide or 10 μg/ml EphA4-Fc
Description: In this example to address whether the EphA4-binding peptides can inhibit endogenous ephrin-EphA4 physiological function, a neural crest cell migration assay (McLennan, R. & Krull, C. E. 2002 Gene Expr 10:295-305) was utilized. […] The migration of neural crest cells was determined by staining for HNK-1 for neural crest cells and ephrin-B1 to label the caudal sclerotome. […] Neural crest cells migrated properly into the rostral sclerotome in explants treated with control Fc.

EphA4 [5] = molecular target: T1, EphA4; assay: Ephrin-AP binding to Eph receptor-coated wells in presence of peptide; settings: for Antagonism of ephrin-A5 binding to EphA4: ephrin-A5 AP
Description: Diluted cell culture supernatants containing ephrin-A5-AP and ephrin-A6-AP were co-incubated with peptides in microtiter wells coated with EphA2 Fc or EphA4 Fc. Ephrins remaining bound after washing were detected by measuring AP activity.

EphA4 [6] = molecular target: T2, EphA4 (Mus musculus, UniProt Q03137); assay: Ephrin-A3 Fc induced EphA4 tyrosine phosphorylation in hippocampal slices; assay type: cell-based; settings: micromolar peptide
T2 construct: antagonize ephrin-A3-induced tyrosine phosphorylation of endogenous EphA4; from tissue; host or cells: mouse hippocampal slices
T2 sequence (Q03137 20-986): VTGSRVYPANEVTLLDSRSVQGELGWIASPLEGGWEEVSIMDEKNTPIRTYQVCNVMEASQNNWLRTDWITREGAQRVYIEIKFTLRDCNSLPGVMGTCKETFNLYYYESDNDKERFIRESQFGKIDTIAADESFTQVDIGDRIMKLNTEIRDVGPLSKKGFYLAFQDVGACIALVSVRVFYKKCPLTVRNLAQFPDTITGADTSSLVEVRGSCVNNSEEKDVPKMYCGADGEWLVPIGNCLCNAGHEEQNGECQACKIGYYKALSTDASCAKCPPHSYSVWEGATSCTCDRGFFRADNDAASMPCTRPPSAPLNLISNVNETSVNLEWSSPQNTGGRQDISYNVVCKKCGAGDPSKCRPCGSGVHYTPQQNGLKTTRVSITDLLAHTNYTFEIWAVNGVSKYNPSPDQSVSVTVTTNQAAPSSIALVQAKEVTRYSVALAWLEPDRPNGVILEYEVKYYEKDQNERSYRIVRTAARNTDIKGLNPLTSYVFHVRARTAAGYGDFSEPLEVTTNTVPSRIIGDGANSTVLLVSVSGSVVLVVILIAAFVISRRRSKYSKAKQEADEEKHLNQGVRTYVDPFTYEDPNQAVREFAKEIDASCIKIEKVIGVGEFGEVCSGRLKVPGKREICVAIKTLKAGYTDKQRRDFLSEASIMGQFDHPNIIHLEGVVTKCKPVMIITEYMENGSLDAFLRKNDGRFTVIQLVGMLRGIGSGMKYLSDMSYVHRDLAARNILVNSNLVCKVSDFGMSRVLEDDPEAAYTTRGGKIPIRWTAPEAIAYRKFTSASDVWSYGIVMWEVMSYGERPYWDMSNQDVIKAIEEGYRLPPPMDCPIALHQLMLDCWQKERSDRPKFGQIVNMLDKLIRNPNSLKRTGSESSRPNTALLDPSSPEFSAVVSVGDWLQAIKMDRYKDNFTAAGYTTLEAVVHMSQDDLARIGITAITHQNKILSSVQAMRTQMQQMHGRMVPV

EphA2 [7] = molecular target: T3, EphA2 (Mus musculus, UniProt Q03145); assay: Immobilized biotinylated synthetic peptide capturing Eph receptor Fc (ELISA); assay type: binding; settings: biotinylated peptide on streptavidin-coated wells
T3 construct: purchased R&D Systems
Target sequence in this assay (Q03145 with tags, fused parts or gaps limits assumed): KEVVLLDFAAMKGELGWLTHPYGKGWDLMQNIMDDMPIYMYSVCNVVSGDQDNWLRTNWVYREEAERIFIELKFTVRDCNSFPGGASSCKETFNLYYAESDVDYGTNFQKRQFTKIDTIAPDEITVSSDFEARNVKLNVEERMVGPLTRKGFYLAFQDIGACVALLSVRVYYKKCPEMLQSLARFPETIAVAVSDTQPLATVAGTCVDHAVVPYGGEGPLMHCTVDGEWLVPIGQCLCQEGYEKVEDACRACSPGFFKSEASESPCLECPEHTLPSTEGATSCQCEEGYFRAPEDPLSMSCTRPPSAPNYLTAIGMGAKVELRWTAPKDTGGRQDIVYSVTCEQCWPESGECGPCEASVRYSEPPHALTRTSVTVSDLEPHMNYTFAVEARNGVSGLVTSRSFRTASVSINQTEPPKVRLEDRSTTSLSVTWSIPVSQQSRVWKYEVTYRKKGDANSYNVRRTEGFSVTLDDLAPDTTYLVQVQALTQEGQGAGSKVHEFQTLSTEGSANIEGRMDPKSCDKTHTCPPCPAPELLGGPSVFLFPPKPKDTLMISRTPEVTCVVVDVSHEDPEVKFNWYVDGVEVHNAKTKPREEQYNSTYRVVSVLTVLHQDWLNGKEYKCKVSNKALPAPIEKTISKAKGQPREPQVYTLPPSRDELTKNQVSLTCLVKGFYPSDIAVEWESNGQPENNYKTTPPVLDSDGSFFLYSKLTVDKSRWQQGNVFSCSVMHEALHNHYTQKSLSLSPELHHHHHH
Source text: as §4

EphA7 = assay: Binding selectivity of phage clones isolated on EphA7
Description: as §1, §2

EphB receptors = assay: Immobilized biotinylated synthetic peptide capturing Eph receptor Fc (ELISA); assay type: binding
Source text: as §4

EphA2 [8] = molecular target: T3, EphA2; assay: Peptide competition with phage clones on immobilized EphA2 Fc; assay type: binding
Target sequence in this assay (Q03145 26-538 limits assumed): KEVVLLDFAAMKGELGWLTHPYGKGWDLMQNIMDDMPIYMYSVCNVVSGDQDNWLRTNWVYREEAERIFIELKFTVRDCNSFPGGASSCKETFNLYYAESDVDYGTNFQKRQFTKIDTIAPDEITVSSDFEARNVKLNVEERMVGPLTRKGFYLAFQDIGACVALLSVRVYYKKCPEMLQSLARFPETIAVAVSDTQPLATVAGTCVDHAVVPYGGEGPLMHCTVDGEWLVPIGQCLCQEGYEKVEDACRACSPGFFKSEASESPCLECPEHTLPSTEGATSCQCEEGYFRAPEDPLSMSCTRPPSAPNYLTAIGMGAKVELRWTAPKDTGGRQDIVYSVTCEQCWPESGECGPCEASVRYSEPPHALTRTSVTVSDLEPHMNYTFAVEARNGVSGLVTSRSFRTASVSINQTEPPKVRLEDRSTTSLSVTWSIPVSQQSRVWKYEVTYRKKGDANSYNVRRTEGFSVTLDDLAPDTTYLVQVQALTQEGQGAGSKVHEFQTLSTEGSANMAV
Description: A histidine-tagged mouse EphA2 Fc fusion protein (R&D Systems, Minneapolis, Minn.) was incubated overnight at 4° C. in nickel-nitrilotriacetic acid (Ni-NTA)-coated ELISA plates at concentrations of 1-10 μg/ml in Tris-buffered saline (TBS) (150 mM NaCl, 50 mM Tris-HCl, pH 7.5). Wells were blocked with 0.5% bovine serum albumin (BSA) in TBS, and rinsed with binding buffer (TBS, 1 mM CaCl2, 0.1% Tween 20).
For peptide competition assays with phage clones, Ni-NTA microtiter wells coated with EphA2 Fc were incubated for 1 hour at room temperature with phage clones diluted between 1:600 and 1:9,000 in binding buffer (100 μl/well). Unbound phage were washed away and competing peptides were added for 1 hour. Alternatively, peptides and phage were co-incubated together.

MAP kinase = MAP kinase phosphorylation in HUVE cells (immunoblot); assay type: cell-based, human
Source text: Cell lysates were used to immunoprecipitate EphA2 as described above or probed by immunoblotting with anti-phospho-p44/p42 MAPK antibody (Cell Signaling Technology, Beverly, Mass.) followed by an anti-mouse IgG peroxidase-conjugated antibody (Arnersham) and re-probed with an anti-ERK2 antibody (Santa Cruz Biotechnology, Santa Cruz, Calif.) followed by a secondary anti-rabbit IgG peroxidase-conjugated antibody (Amersham). Erk2 (p42 MAP kinase) is the major phosphorylated form present. EphA2 was immunoprecipitated (IP) and probed by immunoblotting with anti-phosphotyrosine (PTyr) or anti-EphA2 antibodies.

EphA2 [9] = molecular target: T3, EphA2; assay: Ephrin-AP binding to Eph receptor-coated wells in presence of peptide; settings: ephrin-A5-AP, ephrin-A6-AP
Target sequence in this assay (Q03145 with tags, fused parts or gaps limits assumed): as the sequence (Q03145 with tags, fused parts or gaps limits assumed) above
Description: Ephrin binding to Eph receptor-coated plates was quantified using alkaline phosphatase (AP) fusion proteins of ephrin-A5 and ephrin-A6 (plasmids encoding these AP-fusions are described above). Diluted cell culture supernatants containing ephrin-A5-AP and ephrin-A6-AP were co-incubated with peptides in microtiter wells coated with EphA2 Fc or EphA4 Fc. Ephrins remaining bound after washing were detected by measuring AP activity.

EphA receptors = assay: Immobilized biotinylated synthetic peptide capturing Eph receptor Fc (ELISA); assay type: binding; settings: Fc fusion proteins of EphA receptors
Source text: as §4

Compound: WTFPVLWDDKHP (WTF peptide)
- Binding selectivity of peptides isolated on EphA5 (EphA5): also binds to EphA6
- Binding selectivity of peptides isolated on EphA5 (EphA5; listed as WTF): binds to both EphA5 and EphA6

Compound: DALNDWLLFRPW (DAL peptide)
- Binding of phage clones to EphB4 Fc (EphB4 [1]): bound to EphB4 Fc
- EphB4 bound compared to other EphB family receptors (EphB4 [2]): four-fold

Compound: NHWLDTLFPMHM (EphA4-binding peptide)
- Binding preference of phage clones for EphA4 (EphA4 [3]): preferential binding to EphA4

Compound: KYLPYWPVLSSL (KYL peptide)
- Binding preference of phage clones for EphA4 (EphA4 [3]): preferential binding to EphA4
- Selectivity of synthetic peptide for EphA4 (EphA4 [4]): exhibited some binding to other EphA and EphB receptors
- Migration of neural crest cells (neural crest cells): ectopic migration of neural crest cells into the caudal half-sclerotome
- Antagonism of ephrin-A5 binding to EphA4 (EphA4 [5]): antagonize ephrin-A5 binding to EphA4 in a concentration-dependent manner
- Peptide concentration that almost completely inhibited ephrin binding (EphA4 [5]; ephrin-A5 AP binding to EphA4): 1 µM
- Selectivity of block of ephrin-A5 AP binding to EphA4 compared to other EphA receptors (EphA4 [5]; peptide 50 μM): preferentially
- Ephrin-A3-induced tyrosine phosphorylation (activation) of endogenous EphA4 (EphA4 [6]): blocked EphA4 tyrosine phosphorylation at lower concentrations than the APY and VTM peptides; also recorded: antagonize ephrin-A3 induced activation of endogenous EphA4

Compound: VADRYAVYWNSSNPR (extended A5 peptide)
- Binding of immobilized synthetic peptide to EphA2 Fc (EphA2 [7]): exhibits a similar weak binding

Compound: SGHQLLLNKMPN (SGH peptide)
- Binding of phage clones to EphB4 Fc (EphB4 [1]): bound to EphB4 Fc

Compound: WDCNGPYCHWLG (WDC peptide)
- Binding selectivity of peptides isolated on EphA5 (EphA5): selective binding to this receptor
- Binding selectivity of peptides isolated on EphA5 (EphA5; listed as WDC): selectively bind to EphA5

Compound: SLRDTYMRAKVL (SLR peptide)
- Binding selectivity of peptides isolated on EphA5 (EphA5): selective binding to this receptor
- Binding selectivity of peptides isolated on EphA5 (EphA5; listed as SLR): selectively bind to EphA5

Compound: WASHAPYWPHPP (EphA7-binding peptide)
- Binding to further EphA receptors of EphA7-binding peptides (EphA7): also binds to EphA3

Compound: CSCC[C@H](NC(=O)[C@H](CCSC)NC(=O)[C@@H]1CCCN1C(=O)[C@@H](NC(=O)[C@H](CO)NC(=O)[C@H](CC(=O)O)NC(=O)[C@@H]1CCCN1C(=O)[C@H](Cc1ccc(O)cc1)NC(=O)[C@H](C)NC(=O)[C@H](CO)NC(=O)[C@@H](N)Cc1ccc(O)cc1)C(C)C)C(=O)N[C@@H](CO)C(=O)O [YSA]
- Binding of synthetic peptide to receptors of the EphB family (EphB receptors): lack the ability to bind to receptors of the EphB family
- Binding of immobilized synthetic peptide to EphA2 Fc (EphA2 [7]): bound to EphA2
- Competition of synthetic peptide with phage binding to immobilized EphA2 (EphA2 [8]): competes with SWL phage
- Inhibition of A-ephrin binding to immobilized EphA4 by EphA2-binding peptides (EphA4 [5]; ephrin-A5-AP, ephrin-A6-AP): not EphA4
- MAP kinase activation (MAP kinase): activates a previously described Eph2A signaling pathway that suppresses MAP kinase activation
- Inhibition of ephrin binding to immobilized EphA2 (EphA2 [9]): inhibit, in a concentration dependent manner
- Binding of immobilized synthetic peptide to EphA receptors (other than or including EphA2) (EphA receptors): not to other EphA receptors

Compound: A3 peptide: Twelve-mer synthetic peptide corresponding to the G-H loop of ephrin-A3
- Binding of immobilized synthetic peptide to EphA2 Fc (EphA2 [7]): bind EphA2, albeit more weakly than the YSA peptide
- Competition of synthetic peptide with phage binding to immobilized EphA2 (EphA2 [8]): did not inhibit phage binding
- Inhibition of ephrin binding to immobilized EphA2 (EphA2 [9]): did not compete with ephrin-A5 for binding to EphA2
- Binding of immobilized synthetic peptide to EphA receptors (other than or including EphA2) (EphA receptors): bind promiscuously to all EphA receptors

Compound: IPWTQHMAMSPM (IPW peptide)
- Binding of phage clones to EphB4 Fc (EphB4 [1]): bound to EphB4 Fc

Compound: A5 peptide: Twelve-mer synthetic peptide corresponding to the A-A′ β-strand of ephrin-A5
- Binding of immobilized synthetic peptide to EphA2 Fc (EphA2 [7]): bind EphA2, albeit more weakly than the YSA peptide
- Competition of synthetic peptide with phage binding to immobilized EphA2 (EphA2 [8]): enhanced both phage and ephrin-A5 binding to EphA2
- Inhibition of ephrin binding to immobilized EphA2 (EphA2 [9]): enhanced both phage and ephrin-A5 binding to EphA2
- Binding of immobilized synthetic peptide to EphA receptors (other than or including EphA2) (EphA receptors): bind promiscuously to all EphA receptors

Compound: VTMEAINLAFPG (VTM peptide)
- Binding preference of phage clones for EphA4 (EphA4 [3]): preferential binding to EphA4
- Antagonism of ephrin-A5 binding to EphA4 (EphA4 [5]): antagonize ephrin-A5 binding to EphA4 in a concentration-dependent manner
- Mode of inhibition of ephrin binding (EphA4 [5]; inhibition curves at different ephrin concentrations): competitively inhibits ephrin binding
- Ephrin-A3-induced tyrosine phosphorylation (activation) of endogenous EphA4 (EphA4 [6]): antagonize ephrin-A3 induced activation of endogenous EphA4

Compound: SVSVGMKPSPRP (SVS peptide)
- Binding to further EphA receptors of EphA7-binding peptides (EphA7): also binds to EphA3 and EphA6

Compound: KHLPFYPHPTSP (EphA7-binding peptide)
- Binding to further EphA receptors of EphA7-binding peptides (EphA7): also binds to EphA3, EphA5, and EphA6
